In patent US20210395327A1, “Growth Hormone-Releasing Hormone Antagonists and Uses Thereof” (United States Government As Represented By The Department …, priority 2019, published 2021):
Non-standard residues stand in square brackets, D forms with d. Residues, ends and D or L forms follow the SMILES beside them. *: point of attachment. Phenylacetyl(2,3,4,5,6-F5) = O=C(Cc1c(F)c(F)c(F)c(F)c1F)*; Phe(F5) = N[C@@H](Cc1c(F)c(F)c(F)c(F)c1F)C(=O)O; Phe(4-Cl) = N[C@@H](Cc1ccc(Cl)cc1)C(=O)O; hArg = N=C(N)NCCCC[C@H](N)C(=O)O; 12Ado = NCCCCCCCCCCCC(=O)O; Nle = CCCC[C@H](N)C(=O)O; Abu = CC[C@H](N)C(=O)O

Legend:
[1] = test system: KATOIII stomach cancer cells; test: In vitro cell viability, KATOIII; assay type: cell-based, human; settings: antagonist 5 μM for 72 h, cell proliferation assay; MIA602 = 1
Summary of the method: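 Cells grown to ~60% confluence, serum-starved 24 h in 0.5% FBS, then treated with antagonists at 1, 2.5 or 5 μM or vehicle (0.1% DMSO) in quintuplicate for 72 h, medium replaced every 48 h. Viability read by MTS-type CellTiter 96 AQueous One assay; expressed as inhibitory potency relative to MIA602.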

[2] = test system: PANC-1 pancreatic cancer cells; test: In vitro cell viability, PANC-1; assay type: cell-based, human; settings: antagonist 5 μM for 72 h, cell proliferation assay; MIA602 = 1
Method: (§1) The inhibitory effects of the various synthesized GHRH antagonists were tested in cell proliferation assays in various human cancer cell lines including stomach cancer (KATOIII, N87), colon cancer (HT-29), urothelial cancer (J82, RT4), pancreatic cancer (PANC-1, CFPAC-1), prostatic cancer (PC3), breast cancer (MX-1, HCC1806), ovarian cancer (SK-OV-3, OVCAR-3) and lung cancer (HCC827, H460).
(§2) Cell culture. Human cancer cell lines including pancreatic (PANC-1 and CFPAC-1), lung (HCC827 and H460), stomach (NCI-N87 and KATOIII), urothelial (J82, RT4), prostatic (PC3), breast (MX-1 and HCC 1806), colorectal (HT-29), and ovarian (SK-OV-3 and OVCAR-3) were obtained from the American Type Culture Collection (ATCC) and cultured at 37° C. in a humidified 95% air/5% CO2 atmosphere in the medium recommended by ATCC.
(§3) In vitro cell viability. Cell viability was analyzed as follows: cancer cells including pancreatic (PANC-1 and CFPAC-1), lung (HCC827 and H460), stomach (NCI-N87 and KATOIII), urothelial (J82, RT4), prostatic (PC3) and breast (MX-1 and HCC 1806), colorectal (HT-29) and ovarian (SK-OV-3 and OVCAR-3) were grown on 96 well plates to ˜60% confluence, the cells were starved for 24 h in culture medium containing 0.5% FBS. Cells were then treated with GHRH antagonists MIA602 AVR compounds at concentrations of 1, 2.5 or 5 μM, or vehicle (0.1% DMSO) in quintuplicates for 72 hours. The medium was replaced every 48 hours. Cell viability was measured using CellTiter 96 aqueous one solution kit (Promega). Inhibitory effects of tested AVR compounds in comparison to that of MIA602 are presented as inhibitory potency.
(§4) Inhibitory effects of selected AVR compounds in comparison to that of MIA602 are presented as inhibitory potency (e.g., percentage of inhibition). […] The cell lines tested including lung cancer HCC827 (FIG. 2A), pancreatic cancer CFPAC-1 (FIG. 2B), stomach cancer N87 (FIG. 2C), colon cancer HT-29 (FIG. 2D), breast cancers MX-1 and HCC1806 (FIGS. 2 E, F). Based on the results of cell proliferation assay after cancer cells were treated with antagonist at concentration of 5 μM for 72H, the relative inhibitory potency of AVR antagonists in comparison to MIA-602 is summarized in Table 3 A and B. Over 60 AVR compounds were tested in 12 cancer cell lines.

[3] = test system: J82 urothelial cancer cells; test: In vitro cell viability, J82; assay type: cell-based, human; settings: antagonist 5 μM for 72 h, cell proliferation assay; MIA602 = 1
Method: as §1, §2, §3, §4

[4] = test system: OVCAR-3 ovarian cancer cells; test: In vitro cell viability, OVCAR-3; assay type: cell-based, human; settings: Table 3B; * at 2 μM for 72 H; MIA-602 = 1
Method: as §1, §2, §3
Inhibitory effects of selected AVR compounds in comparison to that of MIA602 are presented as inhibitory potency (e.g., percentage of inhibition). […] The cell lines tested including lung cancer HCC827 (FIG. 2A), pancreatic cancer CFPAC-1 (FIG. 2B), stomach cancer N87 (FIG. 2C), colon cancer HT-29 (FIG. 2D), breast cancers MX-1 and HCC1806 (FIGS. 2 E, F). […]

[5] = test system: prostate cancer PC3 xenograft; test: Xenograft tumor growth in nude mice, PC3; assay type: in vivo; settings: Table 4N, Prostate Ca PC3, 8 weeks, 5 μg/day s.c.; for % Inhibition: vs control
Method: (§5) The peptides' activity was compared with GHRH antagonist MIA-602. All statistical analyzses were performed from comparing GHRA antagonists to non-treated tumor (control).
(§6) Peptides and chemicals. GHRH antagonists MIA-602 and AVR-GHRH antagonists (see Table 2 above) were synthesized by solid phase methods and purified by HPLC. The peptides were dissolved in DMSO and further diluted in 10% 1,2-propanediol. The final concentration of peptides was 50 µg/ml in 10% 1,2-propanediol containing 0.1% of DMSO.
as §2, with “(NCI-N87), prostate” for “(NCI-N87 and KATOIII), urothelial (J82, RT4), prostatic”, “brest” for “breast”, “HCC-1806),” for “HCC 1806),”
(§7) Xenograft models of human cancers in nude mice. Female athymic (NCr nu/nu) nude mice, 5- to 6-weeks-old, obtained from the Envigo labs (Tampa, Fla.), were housed in laminar airflow cabinets under pathogen-free conditions with a 12-h light/12-h dark schedule, and were fed autoclaved standard chow and water. To generate mice with xenografted tumors, tumor xenografts were initiated by subcutaneous (s.c.) injection of 107 human cancer cells into female nude mice. After about 4 weeks the resulting tumors were dissected and collected after removing necrosis tissues. The tumors were then cut into particles with size of 3 mm3 and transplanted s.c. by trocar needle into experimental animals. When tumors grew to the size of 50-60 mm3 (by volume), mice were randomized into groups and treated daily for 4-8 weeks by subcutaneous administration of 5 μg of GHRH antagonists MIA-602 or AVR-compounds (2-10 μg as indicated), or vehicle solutions (0.1% DMSO in 10% 1,2-propanediol) respectively. Tumor sizes were measured weekly.
(§8) Statistical analysis. One-way ANOVA followed by Bonferroni comparison were performed. Data are expressed as Mean±SEM. To determine statistical significance between animal groups, two-tailed Student's t-test was conducted. Differences were considered significant when p<0.05.
(§9) Results. […] FIG. 1A-N represents in vivo inhibition of tumor growth during the treatment with GHRH antagonist MIA-602 and selected AVR antagonists in nude mice xenografted with various human tumors including pancreatic cancer PANC-1 (FIG. 1A) and CFPAC-1 (FIG. 1I); lung cancer HCC827 (FIGS. 1B, C) and H460 (FIG. 1H); stomach cancer N87 (FIGS. 1D-F); colon cancer HT-29 (FIG. 1G); breast cancer MX-1 and HCC-1806 (FIGS. 1J, K); ovarian cancer SK-OV-3 and OVACAR-3 (FIGS. 1 L, M) and prostate cancer PC3 (FIG. 1N). See also Table 5.

[6] = test system: ovarian cancer OVCAR-3 xenograft; test: Xenograft tumor growth in nude mice, OVCAR-3; assay type: in vivo; settings: Table 4M, Ovarian Ca OVCAR-3, 9 weeks; for % Inhibition: vs control
Method: as §5, §6
as §2, with “(NCI-N87), prostate” for “(NCI-N87 and KATOIII), urothelial (J82, RT4), prostatic”, “brest” for “breast”, “HCC-1806),” for “HCC 1806),”
as §7, §8, §9

[7] = test system: colon cancer HT-29 xenograft; test: Xenograft tumor growth in nude mice, HT-29; assay type: in vivo; settings: Table 4G, Colon Ca HT-29, 6 weeks, 5 μg/day s.c.
Method: as §5, §6
as §2, with “(NCI-N87), prostate” for “(NCI-N87 and KATOIII), urothelial (J82, RT4), prostatic”, “brest” for “breast”, “HCC-1806),” for “HCC 1806),”
as §7, §8, §9

SMILES | relative inhibitory potency in comparison to MIA-602, Stomach KATOIII [1] | relative inhibitory potency in comparison to MIA-602, Pancreatic Panc-1 [2] | relative inhibitory potency in comparison to MIA-602, Urothelial J82 [3] | In vitro relative inhibitory potency in comparison to MIA-602, OVCAR-3 [4] | Tumor Size (mm3) [5] [mm3] | % Inhibition [5] [%] | Tumor Size (mm3) ([6]; 2.5 μg/day s.c.) | % Inhibition ([6]; 2.5 μg/day s.c.) [%] | Tumor Size (mm3) ([6]; 5 μg/day s.c.) | % Inhibition ([6]; 5 μg/day s.c.) [%] | Tumor Size (mm^3) [7] [mm^3] | % Inhibition ([7]; vs control) [%]
CCCC[C@H](NC(=O)[C@@H](NC(=O)[C@H](CC(=O)O)NC(=O)[C@H](CCC(N)=O)NC(=O)[C@H](CC(C)C)NC(=O)[C@H](CC(C)C)NC(=O)[C@H](CCCCN)NC(=O)[C@H](CCCNC(=N)N)NC(=O)[C@H](C)NC(=O)[C@H](CO)NC(=O)[C@H](CC(C)C)NC(=O)[C@H](CCC(N)=O)NC(=O)[C@H](CC)NC(=O)[C@H](CC(C)C)NC(=O)[C@@H](NC(=O)[C@H](CCCCN)NC(=O)[C@H](CCCNC(=N)N)NC(=O)[C@H](Cc1ccc(OC)cc1)NC(=O)[C@H](CCCCNC(=N)N)NC(=O)[C@H](C)NC(=O)[C@@H](NC(=O)[C@H](Cc1c(F)c(F)c(F)c(F)c1F)NC(=O)[C@@H](NC(=O)[C@H](C)NC(=O)[C@H](CC(=O)O)NC(=O)[C@@H](CCCNC(=N)N)NC(=O)[C@H](Cc1ccc(O)cc1)NC(=O)CCCCCCCCCCCNC(=O)Cc1c(F)c(F)c(F)c(F)c1F)[C@@H](C)CC)[C@@H](C)O)C(C)C)[C@@H](C)CC)C(=O)N[C@H](CCCNC(=N)N)C(=O)N[C@@H](CCCCNC(=N)N)C(=O)NC [AVR-235] ({Phenylacetyl(2,3,4,5,6-F5)-12Ado}-Y[dR]DAI[Phe(F5)]TA[hArg]Y(Me)RKVL[Abu]QLSARKLLQDI[Nle][dR][hArg]-NHMe) | 1.220 | 1.139 | 1.518 | – | – | – | – | – | – | – | – | –
CCCC[C@H](NC(=O)[C@@H](NC(=O)[C@H](CC(=O)O)NC(=O)[C@H](CCC(N)=O)NC(=O)[C@H](CC(C)C)NC(=O)[C@H](CC(C)C)NC(=O)[C@H](CCCCN)NC(=O)[C@H](CCCNC(=N)N)NC(=O)[C@H](C)NC(=O)[C@H](CO)NC(=O)[C@H](CC(C)C)NC(=O)[C@H](CCC(N)=O)NC(=O)[C@H](CC)NC(=O)[C@H](CC(C)C)NC(=O)[C@@H](NC(=O)[C@H](CCCCN)NC(=O)[C@H](CCCNC(=N)N)NC(=O)[C@H](Cc1ccc(OC)cc1)NC(=O)[C@H](CCCCNC(=N)N)NC(=O)[C@H](C)NC(=O)[C@@H](NC(=O)[C@H](Cc1c(F)c(F)c(F)c(F)c1F)NC(=O)[C@@H](NC(=O)[C@H](C)NC(=O)[C@H](CC(=O)O)NC(=O)[C@@H](CCCNC(=N)N)NC(=O)[C@H](Cc1ccc(O)cc1)NC(=O)CCCCCCCCCCCNC(=O)Cc1c(F)c(F)c(F)c(F)c1F)[C@@H](C)CC)[C@@H](C)O)C(C)C)[C@@H](C)CC)C(=O)N[C@H](CCCNC(=N)N)C(=O)N[C@@H](CCCCNC(=N)N)C(=O)NCCCCCCCCCCCC(N)=O [AVR-352, 5FPhAC-Ada-Tyr-DArg-Asp-Ala-Ile-5FPhe-Thr-Ala-Har-Tyr(Me)-Arg-Lys-Val-Leu-Abu-Gln-Leu-Ser-Ala-Arg-Lys-Leu-Leu-Gln-Asp-Ile-Nle-DArg-Har-Ada-NH2] ({Phenylacetyl(2,3,4,5,6-F5)-12Ado}-Y[dR]DAI[Phe(F5)]TA[hArg]Y(Me)RKVL[Abu]QLSARKLLQDI[Nle][dR][hArg][12Ado]-NH2) | – | – | – | 1.68* | 413.3 | 50.0 | 307.7 | 35.9 | 199.9 | 58.4 | – | –
CCCC[C@H](NC(=O)[C@@H](NC(=O)[C@H](CC(=O)O)NC(=O)[C@H](CCC(N)=O)NC(=O)[C@H](CC(C)C)NC(=O)[C@H](CC(C)C)NC(=O)[C@H](CCCCN)NC(=O)[C@H](CCCNC(=N)N)NC(=O)[C@H](C)NC(=O)[C@H](CO)NC(=O)[C@H](CC(C)C)NC(=O)[C@H](CCC(N)=O)NC(=O)[C@H](CC)NC(=O)[C@H](CC(C)C)NC(=O)[C@@H](NC(=O)[C@H](CCCCN)NC(=O)[C@H](CCCNC(=N)N)NC(=O)[C@H](Cc1c(F)c(F)c(F)c(F)c1F)NC(=O)[C@H](CCCCNC(=N)N)NC(=O)[C@H](C)NC(=O)[C@@H](NC(=O)[C@H](Cc1ccc(Cl)cc1)NC(=O)[C@@H](NC(=O)[C@H](C)NC(=O)[C@H](CC(=O)O)NC(=O)[C@@H](CCCNC(=N)N)NC(=O)[C@H](Cc1ccc(O)cc1)NC(=O)CCCCCCCCCCCNC(=O)Cc1c(F)c(F)c(F)c(F)c1F)[C@@H](C)CC)[C@@H](C)O)C(C)C)[C@@H](C)CC)C(=O)N[C@H](CCCNC(=N)N)C(=O)N[C@@H](CCCCNC(=N)N)C(=O)NCCCCCCCCCCCC(=O)NC [AVR-354] ({Phenylacetyl(2,3,4,5,6-F5)-12Ado}-Y[dR]DAI[Phe(4-Cl)]TA[hArg][Phe(F5)]RKVL[Abu]QLSARKLLQDI[Nle][dR][hArg][12Ado]-NHMe) | – | – | – | – | 343.6 | 58.4 | – | – | – | – | 417.90 | 42.3
